According to patent US4578475A, “Novel D-homosteroids” (Hoffman-La Roche Inc., priority 1983, dated 1986):

Columns and labels:
[1] = tested on: pregnant female albino rats; assay: Interceptive activity in rats (pregnant rats, serum progesterone, living foetuses, resorptions, vacant implantation positions); format: in vivo, rat; conditions: for Serum progesterone 3 h later: orally or intramuscularly on 10th day of pregnancy; for Living foetuses, n (number of animals) / Living foetuses, x (mean of the observations) / Resorption, n (number of animals) / Resorption, x (mean of the observations) / Vacant implantation positions, n (number of animals) / Vacant implantation positions, x (mean of the observations): orally or intramuscularly on 10th day, killed on 15th day
Text: Female albino rats were kept under controlled conditions, the synchronicity of the cycle being monitored by daily vaginal douching and subsequent cytological investigation. At proestrus the animals were brought together with male, fertile rats. The successful insemination was checked on the following morning and this day was denoted as the 1st day of the pregnancy. The pregnant animals then received the test substances as a suspension in a standard vehicle (0.5% carboxymethylcellulose, 0.4% TWEEN 80, 0.9% benzyl alcohol and 0.9% NaCl in water) orally or intramuscularly on the 10th day. The animals were killed on the 15th day. The blood was collected and the uteri were investigated for living foetuses, resorptions and vacant implantation positions. The serum hormone concentrations were determined radio-immunologically.

[2] = biological target: T1, Δ^5 -isomerase/3β-hydroxysteroid dehydrogenase (Rattus norvegicus, UniProt P22071); assay: Inhibition of the formation of progesterone in vitro (14C-pregnenolone, rat ovary microsomes); format: biochemical; conditions: 0.5 μg protein, 250 pmol 14C-pregnenolone, 0.4 mg NAD+, 30 minutes, 37° C., pH 7.4, read-out: IC50 (concentration of the test substance at which the enzyme activity amounts to 50% of the maximum value)
T1 construct: from tissue; host or cells: rat ovary microsomes
T1 sequence (P22071 1-373): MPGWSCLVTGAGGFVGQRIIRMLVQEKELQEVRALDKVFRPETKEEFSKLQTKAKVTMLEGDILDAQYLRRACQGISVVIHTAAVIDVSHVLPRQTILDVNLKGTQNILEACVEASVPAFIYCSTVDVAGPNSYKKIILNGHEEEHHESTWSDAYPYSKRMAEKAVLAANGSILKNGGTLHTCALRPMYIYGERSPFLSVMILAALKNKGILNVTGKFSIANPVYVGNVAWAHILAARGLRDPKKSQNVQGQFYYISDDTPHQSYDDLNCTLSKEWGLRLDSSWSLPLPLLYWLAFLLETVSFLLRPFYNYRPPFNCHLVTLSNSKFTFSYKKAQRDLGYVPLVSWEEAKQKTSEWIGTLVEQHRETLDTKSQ
Method: The activity of the D-homosteroids of formula I as inhibitors of Δ^5 -isomerase/3β-hydroxysteroid dehydrogenase was determined in the following experimental procedures:
Rat overies were homogenized in 0.05 M Na2 HPO4 buffer (pH 7.2) which contained 0.25 M sucrose and 0.05 M dithiothreitol. The microsomes obtained after centrifugation were suspended in 0.05 M Na2 HPO4 buffer (pH 7.4) which contained 0.001 M EDTA. This microsome preparation was assayed firstly for enzymatic activity by measuring the increase of the optical density at 340 nm by the reduction of NAD^+. Thereafter, aliquot portions (0.5 μg of protein) were incubated in 1.8 ml of buffer for 30 minutes at 37° C. with 250 pmol of ^14 C-pregnelonone, 0.4 mg of NAD^+ and different concentrations of the test substance dissolved in the minimum amounts of dimethyl sulphoxide. The reaction was interrupted by the addition of methylene chloride. After extraction and evaporation of the solvent, the radioactive metabolites were separated on silica gel-aluminium plates with benzene/acetone (85:15). The radioactivity was measured by means of a scintillation counter.

| Structure (SMILES) | Serum progesterone 3 h later ([1]; 7.5 mg/kg) | Living foetuses, n (number of animals) ([1]; 7.5 mg/kg) | Resorption, n (number of animals) ([1]; 7.5 mg/kg) | Vacant implantation positions, n (number of animals) ([1]; 7.5 mg/kg) | Vacant implantation positions, x (mean of the observations) ([1]; 7.5 mg/kg) | Serum progesterone 3 h later ([1]; 15 mg/kg) | Living foetuses, n (number of animals) ([1]; 15 mg/kg) | Resorption, n (number of animals) ([1]; 15 mg/kg) | Vacant implantation positions, n (number of animals) ([1]; 15 mg/kg) | Vacant implantation positions, x (mean of the observations) ([1]; 15 mg/kg) | Resorption, x (mean of the observations) ([1]; 7.5 mg/kg) | IC50 [2] | further results |
| --- | --- | --- | --- | --- | --- | --- | --- | --- | --- | --- | --- | --- | --- |
| CC1(C)C2=CC[C@@H]3[C@H](CC[C@@]4(C)[C@H]3CC=C[C@]4(C)O)[C@@]2(C)Cc2cnoc21 [Example 2, 4,4,17a-trimethyl-D-homo-androsta-2,5,16-trieno[2,3-d]isoxazol-17aβ-ol] | 39 ng/mL | 0 | 0 | 6 | 13 | 35 ng/mL | 0 | 0 | 6 | 12 | – | – | Serum progesterone 3 h later ([1]; 3.75 mg/kg): 87 ng/mL; Living foetuses, n (number of animals) ([1]; 3.75 mg/kg): 3; Living foetuses, x (mean of the observations) ([1]; 3.75 mg/kg): 12; Resorption, n (number of animals) ([1]; 3.75 mg/kg): 2; Resorption, x (mean of the observations) ([1]; 3.75 mg/kg): 9; Vacant implantation positions, n (number of animals) ([1]; 3.75 mg/kg): 2; Vacant implantation positions, x (mean of the observations) ([1]; 3.75 mg/kg): 13 |
| CC1(C)C2=CC[C@@H]3[C@H](CC[C@@]4(C)[C@H]3CCC[C@]4(C)O)[C@@]2(C)Cc2cnoc21 [Example 3, 4,4,17a-trimethyl-D-homo-androsta-2,5-dieno[2,3-d]-isoxazol-17aβ-ol] | 25 ng/mL | 4 | 5 | 2 | 3 | 29 ng/mL | 4 | 6 | 3 | 13 | 6 | – | Living foetuses, x (mean of the observations) ([1]; 7.5 mg/kg): 9; Living foetuses, x (mean of the observations) ([1]; 15 mg/kg): 9; Resorption, x (mean of the observations) ([1]; 15 mg/kg): 3 |
| CC1(C)C2=CC[C@H]3[C@@H]4CC=C[C@H](O)[C@@]4(C)CC[C@@H]3[C@@]2(C)Cc2cn[nH]c21 [Example 5, 4,4-dimethyl-2'H-D-homo-androsta-2,5,16-trieno[3,2-c]pyrazol-17aβ-ol] | – | – | – | – | – | – | – | – | – | – | – | 0.8 nM | – |
| CC1(C)C2=CC[C@@H]3[C@H](CC[C@@]4(C)[C@H]3CC=C[C@]4(C)O)[C@@]2(C)Cc2cn[nH]c21 [Example 6, 4,4,17a-trimethyl-2'H-D-homo-androsta-2,5,16-trieno[3,2-c]-pyrazol-17aβ-ol] | – | – | – | – | – | – | – | – | – | – | – | 0.4 nM | – |
| CCCCC1(O)C=CCC2C3CC=C4C(C)(C)c5[nH]ncc5CC4(C)C3CCC21C [Example 7, 17a-butyl-4,4-dimethyl-2'H-D-homo-androsta-2,5,16-trieno[3,2-c]pyrazol-17aβ-ol] | – | – | – | – | – | – | – | – | – | – | – | 6 nM | – |
| CC(=O)O[C@H]1C=CC[C@H]2[C@@H]3CC=C4C(C)(C)c5nn(C(C)=O)cc5C[C@]4(C)[C@H]3CC[C@]12C [Example 12, 1'-acetyl-4,4-dimethyl-1'H-D-homo-androsta-5,16-dieno[3,2-c]pyrazol-17aβ-yl acetate] | – | – | – | – | – | – | – | – | – | – | – | 6 nM | – |
| CC1(C)C(=O)[C@H](C#N)C[C@@]2(C)C1=CC[C@@H]1[C@@H]2CC[C@@]2(C)[C@H]1CCC[C@]2(C)O [Example 14, 17aβ-hydroxy-4,4,17a-trimethyl-3-oxo-D-homo-androst-5-ene-2a-carbonitrile] | 20 ng/mL | 1 | 3 | 4 | 12 | 20 ng/mL | 1 | 3 | 4 | 13 | 12 | – | Living foetuses, x (mean of the observations) ([1]; 7.5 mg/kg): 3; Living foetuses, x (mean of the observations) ([1]; 15 mg/kg): 12; Resorption, x (mean of the observations) ([1]; 15 mg/kg): 14 |
| CC1(C)C(=O)[C@H](C#N)C[C@@]2(C)C1=CC[C@@H]1[C@@H]2CC[C@@]2(C)[C@H]1CC=C[C@]2(C)O [Example 17, 17aβ-hydroxy-4,4,17a-trimethyl-3-oxo-D-homo-androsta-5,16-diene-2α-carbonitrile] | 29 ng/mL | 0 | 2 | 4 | 11 | – | – | – | – | – | 15 | 6.5 nM | Serum progesterone 3 h later ([1]; 3.75 mg/kg): 32 ng/mL; Living foetuses, n (number of animals) ([1]; 3.75 mg/kg): 2; Living foetuses, x (mean of the observations) ([1]; 3.75 mg/kg): 5; Resorption, n (number of animals) ([1]; 3.75 mg/kg): 5; Resorption, x (mean of the observations) ([1]; 3.75 mg/kg): 11; Vacant implantation positions, n (number of animals) ([1]; 3.75 mg/kg): 1; Vacant implantation positions, x (mean of the observations) ([1]; 3.75 mg/kg): 13 |
| CC1(C)C(=O)[C@H](C#N)C[C@@]2(C)C1=CC[C@@H]1[C@@H]2CC[C@@]2(C)[C@H]1CC=C[C@@]21CCC(=O)O1 [Example 19, 2α-cyano-4,4-dimethyl-3-oxo-D-homo-17aα-pregna-5,16-diene-21,17a-carbolactone] | – | – | – | – | – | 9 ng/mL | 0 | 0 | 8 | 13 | – | – | – |
| CC1(C)C(=O)C(=CNO)C[C@@]2(C)C1=CC[C@@H]1[C@@H]2CC[C@@]2(C)[C@H]1CC=C[C@]2(C)O [Example 21, 17aβ-hydroxy-2-[(hydroxyamino)methylene]-4,4,17a-trimethyl-D-homo-androsta-5,16-dien-3-one] | 24 ng/mL | 3 | 6 | 2 | 10 | 17 ng/mL | 1 | 0 | 6 | 13 | 10 | – | Living foetuses, x (mean of the observations) ([1]; 7.5 mg/kg): 6; Living foetuses, x (mean of the observations) ([1]; 15 mg/kg): 15 |
| CC(=O)OC1=C(C#N)C[C@]2(C)[C@H]3CC[C@]4(C)[C@@H](OC(C)=O)C=CC[C@H]4[C@@H]3CC[C@]23O[C@H]13 [Example 22, 3,17aβ-diacetoxy-4α,5α-epoxy-D-homo-5α-androsta-2,16-diene-2-carbonitrile] | – | – | – | – | – | – | – | – | – | – | – | 0.9 nM | – |
| C[C@]1(O)C=CC[C@H]2[C@@H]3CC[C@@]45O[C@]4(C)C(=O)[C@H](C#N)C[C@]5(C)[C@H]3CC[C@@]21C [Example 25, 4α, 5-epoxy-17aβ-hydroxy-4,17a-dimethyl-3-oxo-D-homo-5α-androst-16-ene-2α-carbonitrile] | – | – | – | – | – | – | – | – | – | – | – | 7 nM | – |
